The results in this text go back to ChEMBL document CHEMBL5724914, “Linking interpersonal differences in gut microbiota composition and drug biotransformation activity” (2024).

A short description of data set [1]: The drug is tested on WLS-090 corresponding to human gut metagenome with ENA study accession number: PRJEB37062 and ENA sample accession number: ERS12561753 for biotransformation under anaerobic condition. The drug concentrations were measured over 9 timepoints collected between 0 and 24 hours of incubation by liquid-chromatography-coupled mass spectrometry (LC–MS). The following applies: 2 µM.

The nature of data set [2]: The drug is tested on Z-025 corresponding to rabbit gut metagenome with ENA study accession number: PRJEB37062 and ENA sample accession number: ERS12561824 for biotransformation under anaerobic condition. The drug concentrations were measured over 9 timepoints collected between 0 and 24 hours of incubation by liquid-chromatography-coupled mass spectrometry (LC–MS). The conditions noted are these: 2 µM.

For data set [3] the following is noted: human gut metagenome, 24 h, 2 µM.
The nature of data set [4]: The drug is tested on Z-013 corresponding to rabbit gut metagenome with ENA study accession number: PRJEB37062 and ENA sample accession number: ERS12561813 for biotransformation under anaerobic condition. The drug concentrations were measured over 9 timepoints collected between 0 and 24 hours of incubation by liquid-chromatography-coupled mass spectrometry (LC–MS). The conditions noted are these: 2 µM.

For data set [5] the following is noted: human gut metagenome, 24 h, 2 µM. This is another data set of the same source.
For data set [6] the following is noted: human gut metagenome, 24 h, 2 µM. The source holds these as a separate data set.
Data set [7] can be described thus: The drug is tested on WLS-240 corresponding to human gut metagenome with ENA study accession number: PRJEB37062 and ENA sample accession number: ERS12561773 for biotransformation under anaerobic condition. The drug concentrations were measured over 9 timepoints collected between 0 and 24 hours of incubation by liquid-chromatography-coupled mass spectrometry (LC–MS). The conditions noted are these: 2 µM.

Data set [8] is described as follows: The drug is tested on Z-023 corresponding to metagenome with ENA study accession number: PRJEB37062 and ENA sample accession number: ERS12561822 for biotransformation under anaerobic condition. The drug concentrations were measured over 9 timepoints collected between 0 and 24 hours of incubation by liquid-chromatography-coupled mass spectrometry (LC–MS). The following applies: 2 µM.

The conditions of data set [9]: human gut metagenome, 24 h, 2 µM. This is another data set of the same source.
Data set [10] can be described thus: The drug is tested on Z-010 corresponding to metagenome with ENA study accession number: PRJEB37062 and ENA sample accession number: ERS12561810 for biotransformation under anaerobic condition. The drug concentrations were measured over 9 timepoints collected between 0 and 24 hours of incubation by liquid-chromatography-coupled mass spectrometry (LC–MS). The following applies: 2 µM.

Data set [11] can be described thus: The drug is tested on Z-030 corresponding to mouse gut metagenome with ENA study accession number: PRJEB37062 and ENA sample accession number: ERS12561829 for biotransformation under anaerobic condition. The drug concentrations were measured over 9 timepoints collected between 0 and 24 hours of incubation by liquid-chromatography-coupled mass spectrometry (LC–MS). The conditions noted are these: 2 µM.

Data set [12] is described as follows: The drug is tested on Z-017 corresponding to mouse gut metagenome with ENA study accession number: PRJEB37062 and ENA sample accession number: ERS12561816 for biotransformation under anaerobic condition. The drug concentrations were measured over 9 timepoints collected between 0 and 24 hours of incubation by liquid-chromatography-coupled mass spectrometry (LC–MS). The conditions noted are these: 2 µM.

For data set [13] the following is noted: human gut metagenome, 24 h, 2 µM. This is another data set of the same source.
Data set [14] is described as follows: The drug is tested on Z-009 corresponding to pig gut metagenome with ENA study accession number: PRJEB37062 and ENA sample accession number: ERS12561809 for biotransformation under anaerobic condition. The drug concentrations were measured over 9 timepoints collected between 0 and 24 hours of incubation by liquid-chromatography-coupled mass spectrometry (LC–MS). The following applies: 2 µM.

Data set [15] can be described thus: The drug is tested on WLS-220 corresponding to human gut metagenome with ENA study accession number: PRJEB37062 and ENA sample accession number: ERS12561769 for biotransformation under anaerobic condition. The drug concentrations were measured over 9 timepoints collected between 0 and 24 hours of incubation by liquid-chromatography-coupled mass spectrometry (LC–MS). The conditions noted are these: 2 µM.

For data set [16] the following is noted: human gut metagenome, 24 h, 2 µM. The source holds these as a separate data set.
Data set [17] is described as follows: The drug is tested on Z-011 corresponding to mouse gut metagenome with ENA study accession number: PRJEB37062 and ENA sample accession number: ERS12561811 for biotransformation under anaerobic condition. The drug concentrations were measured over 9 timepoints collected between 0 and 24 hours of incubation by liquid-chromatography-coupled mass spectrometry (LC–MS). The following applies: 2 µM.

For data set [18] the following is noted: human gut metagenome, 24 h, 2 µM. The source holds these as a separate data set.
The nature of data set [19]: The drug is tested on Z-003 corresponding to pig gut metagenome with ENA study accession number: PRJEB37062 and ENA sample accession number: ERS12561803 for biotransformation under anaerobic condition. The drug concentrations were measured over 9 timepoints collected between 0 and 24 hours of incubation by liquid-chromatography-coupled mass spectrometry (LC–MS). The following applies: 2 µM.

The conditions of data set [20]: human gut metagenome, 24 h, 2 µM. This is another data set of the same source.
Also: call rule not given here.

Take `CC(=O)O[C@]1(C(C)=O)CC[C@H]2[C@@H]3C=C(C)C4=CC(=O)CC[C@]4(C)[C@H]3CC[C@@]21C` [MEGESTROL ACETATE]: the “Bacterial Biotransformation” value in data set [1], in data set [2], in data set [3], in data set [4], in data set [5] and in data set [6] was “Compound metabolized” in each case. Moreover, the “Bacterial Biotransformation” value in data set [7] is recorded as “Compound metabolized”; in data set [8], “Compound NOT metabolized”; in [9], “Compound metabolized”; in [10] it was “Compound metabolized”; in [11], “Compound NOT metabolized”; in data set [12], “Compound metabolized”. The “Bacterial Biotransformation” value in data set [13] is reported as “Compound NOT metabolized”; in data set [14], “Compound metabolized”; in [15], “Compound metabolized”; in data set [16], “Compound metabolized”; in data set [17] it was “Compound metabolized”; in [18], “Compound metabolized”. Further, the “Bacterial Biotransformation” value in data set [19] and in [20] was “Compound metabolized” each time.
Take `CC12CC3CC(C)(C1)CC(N)(C3)C2` [MEMANTINE]: the “Bacterial Biotransformation” value in data set [1] is listed as “Compound metabolized”; in [2], “Compound NOT metabolized”; in [3], “Compound NOT metabolized”; in data set [4], “Compound NOT metabolized”; in data set [5], “Compound NOT metabolized”; in data set [6] it was “Compound NOT metabolized”. Moreover, the “Bacterial Biotransformation” value in [7] is “Compound NOT metabolized”; in [8], “Compound metabolized”; in data set [9], “Compound NOT metabolized”; in [10], “Compound NOT metabolized”; in data set [11], “Compound NOT metabolized”; in data set [12] it was “Compound NOT metabolized”. Moreover, the “Bacterial Biotransformation” value in [13], in data set [14], in data set [15], in data set [16], in [17] and in [18] was “Compound NOT metabolized” throughout. Also, the “Bacterial Biotransformation” value in data set [19] and in [20] was “Compound NOT metabolized” in each case.
For `Cc1cc(C)cc(OCC2CNC(=O)O2)c1` (stereo not given) [METAXALONE], the “Bacterial Biotransformation” value in data set [1] is listed as “Compound metabolized”; in data set [2] it was “Compound NOT metabolized”; in [3], “Compound metabolized”; in data set [4], “Compound NOT metabolized”; in data set [5], “Compound metabolized”; in [6] it was “Compound metabolized”. Moreover, the “Bacterial Biotransformation” value in data set [7] was “Compound metabolized”; in data set [8], “Compound NOT metabolized”; in [9], “Compound metabolized”; in data set [10] it was “Compound NOT metabolized”; in data set [11], “Compound NOT metabolized”; in data set [12], “Compound metabolized”. For the same compound, the “Bacterial Biotransformation” value was “Compound NOT metabolized” in [13]; “Compound NOT metabolized” in data set [14]; “Compound metabolized” in data set [15]; “Compound metabolized” in data set [16]; “Compound NOT metabolized” in data set [17]; “Compound metabolized” in data set [18]. Moreover, the “Bacterial Biotransformation” value is listed as “Compound NOT metabolized” in data set [19] and “Compound metabolized” in data set [20].
Regarding `COC(=O)C(c1ccccc1)C1CCCCN1` (stereo not given) [METHYLPHENIDATE], the “Bacterial Biotransformation” value in data set [1] is on record as “Compound metabolized”; in data set [2], “Compound NOT metabolized”; in data set [3], “Compound NOT metabolized”; in data set [4], “Compound NOT metabolized”; in data set [5] it was “Compound NOT metabolized”; in [6], “Compound NOT metabolized”. Moreover, the “Bacterial Biotransformation” value in data set [7] was “Compound metabolized”; in data set [8] it was “Compound metabolized”; in [9], “Compound metabolized”; in [10] it was “Compound NOT metabolized”; in data set [11], “Compound NOT metabolized”; in data set [12] it was “Compound NOT metabolized”. Moreover, the “Bacterial Biotransformation” value in data set [13] was “Compound NOT metabolized”; in [14], “Compound metabolized”; in data set [15], “Compound metabolized”; in [16], “Compound metabolized”; in data set [17] it was “Compound NOT metabolized”; in data set [18], “Compound NOT metabolized”. In addition, the figures for the “Bacterial Biotransformation” value in [19] and in data set [20] were “Compound metabolized” and “Compound NOT metabolized”, respectively.
`CN1CCN2c3ccccc3Cc3ccccc3C2C1` (stereo not given) [MIANSERIN]: the “Bacterial Biotransformation” value is reported as “Compound metabolized” in data set [1]; “Compound metabolized” in [2]; “Compound metabolized” in data set [3]; “Compound NOT metabolized” in data set [4]; “Compound metabolized” in [5]; “Compound NOT metabolized” in [6]. Also, the “Bacterial Biotransformation” value in data set [7] was “Compound NOT metabolized”; in [8], “Compound NOT metabolized”; in [9] it was “Compound metabolized”; in [10] it was “Compound metabolized”; in data set [11], “Compound NOT metabolized”; in data set [12], “Compound NOT metabolized”. In addition, the “Bacterial Biotransformation” value was “Compound NOT metabolized” in [13]; “Compound metabolized” in data set [14]; “Compound metabolized” in data set [15]; “Compound metabolized” in [16]; “Compound metabolized” in data set [17]; “Compound metabolized” in [18]. Further, the “Bacterial Biotransformation” value was “Compound metabolized” in [19] and “Compound NOT metabolized” in data set [20].
